Source: PubChem BioAssay (NCI)
“And” between values parts separate entries of the source, which are not always exact repeats. Equal values may be shown once.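 Interpolation was linear, between the two tested concentrations surrounding the appropriate level; five concentrations were tested over 48 hours in 96-well plates. GI50 marks 50% less growth. TGI marks complete inhibition of growth.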

Experiments:
Test in all cases: DTP human tumour cell line panel, 48 h
ACHN renal = system: ACHN renal
NCI-H23 lung = system: NCI-H23 lung
NCI-H460 lung = system: NCI-H460 lung
SK-MEL-28 melanoma = system: SK-MEL-28 melanoma
SNB-19 CNS = system: SNB-19 CNS
SNB-75 CNS = system: SNB-75 CNS
SW-620 colon = system: SW-620 colon
TK-10 renal = system: TK-10 renal
UO-31 renal = system: UO-31 renal
UACC-62 melanoma = system: UACC-62 melanoma

Row | SMILES | TGI (ACHN renal) [µM] | TGI (NCI-H23 lung) [µM] | TGI (NCI-H460 lung) | TGI (SK-MEL-28 melanoma) | TGI (SNB-19 CNS) [µM] | TGI (SNB-75 CNS) [µM] | TGI (SW-620 colon) | TGI (TK-10 renal) [µM] | TGI (UO-31 renal) | TGI (UACC-62 melanoma) [µM] | GI50 (ACHN renal) [nM]
1 | CC(=N\N=C\c1ccccn1)/C(C)=N/N=C(C)/C(C)=N/N=C(C)/C(C)=N/N=C/c1ccccn1 | > 100 | > 100 | > 100 µM | > 100 µM | > 100 | > 100 | > 100 µM | > 100 | > 100 µM |  | 
2 | CS(=O)(=O)O.[Ag] | 16.8 | 46.2 | 49.5 µM | 35.2 µM | 78.7 | 35.6 | 19.5 µM | 7.74 | 3.52 µM | 31.8 | 
3 | O=C(O)C1SCCS1 | > 100 | > 100 | > 100 µM | > 100 µM | > 100 | > 100 | > 100 µM | > 100 | > 100 µM | > 100 | 
4 | COC(=O)n1c(CBr)c(Br)c2ccccc21 | 47.9 | 71 | 74.9 µM | > 100 µM | > 100 | 47.1 | > 100 µM | 94 | 71.1 µM | 86.4 | 
5 | CC1(C)[C@@H]2C[C@H]1C(Cc1cccc(C[C@H]3c4cc(-c5ccccn5)ncc4[C@H]4C[C@@H]3C4(C)C)c1)c1cc(-c3ccccn3)ncc12 (stereo partly specified) | > 100 | > 63.9 | 12 µM | > 100 µM | > 100 | > 100 | > 45.6 µM | > 100 | 6.15 µM | > 21 | 605
6 | O=C(O)/C=C/C(=O)O | > 100 | > 100 | > 100 µM | > 100 µM | > 100 | > 100 | > 100 µM | > 100 | > 100 µM |  | 
7 | O=C(OCc1ccccc1)N1c2cc([N+](=O)[O-])ccc2C(=O)N2CCC[C@H]2C1O (stereo partly specified) | > 100 | > 100 | > 100 µM | > 100 µM | > 100 | > 100 | > 100 µM | > 100 | > 100 µM | > 100 | 
8 | CC(C)C(C/C=C1\CC(CO)(COC(=O)CC(C(C)C)C(C)C)OC1=O)C(C)C (stereo unspecified) | 22.5 | 29 | 21.7 µM | 29.3 µM | 26.5 | 22.9 | 21.6 µM | 21.8 | 20 µM | 29 | 
9 | CC[C@@H]1CC[C@@H]2[C@H](CC[C@]3(C)[C@@H](OS(=O)(=O)c4ccc(C)cc4)CC[C@@H]23)[C@H]1CO | > 100 | > 100 | > 100 µM | > 100 µM | > 100 | > 100 | > 100 µM | > 100 | 52.5 µM |  | 
10 | O=C1C(N=Nc2ccc(-c3nc4ccccc4[nH]3)cc2)NC(=S)N1c1ccccc1 (stereo unspecified) | > 100 | > 100 | > 100 µM | > 100 µM | > 100 | > 100 | 80.1 µM | > 100 | > 100 µM | > 100 | 
11 | CCS(=O)(=O)c1c2cc(OC)ccc2nc2ccc(OC)cc12 | > 100 | > 100 | > 100 µM | > 100 µM | > 100 | > 100 | > 100 µM | > 100 | > 100 µM | > 100 | 
12 | CCOC(=O)C(C)c1nc2cc(N3CCN(C)CC3)c(F)cc2[nH]c1=O (stereo unspecified) | > 100 | > 100 | > 100 µM | > 100 µM | > 100 | > 100 | > 100 µM |  | > 100 µM | > 100 | 
13 | C/C=C\C(CC(=O)NCCC1CN(C(=O)c2ccccc2)c2ccccc21)CC(=O)OC (stereo unspecified) | > 100 | > 100 | > 100 µM | > 100 µM | > 100 | > 100 | > 100 µM | > 100 | > 100 µM | > 100 | 
14 | CC(=O)Nc1ccc(-c2nnc(SCC(=O)Nc3ccccc3C)o2)cc1 | > 100 | > 100 | > 100 µM | > 100 µM |  | > 100 | > 100 µM | > 100 | > 100 µM | > 100 | 
15 | O=C1O[C@]2(c3ccccc3)C(c3ccccc3)=C[C@]2(C(=O)c2ccccc2)C1=O | > 100 | > 100 | 71.6 µM | > 100 µM | > 100 | > 100 | 45.1 µM | 73.5 | 61.1 µM | > 100 | 
16 | COc1ccc(/C=C2\CN(C)Cc3c2[nH]c(=O)c(C#N)c3-c2ccc(OC)cc2)cc1 | > 100 | > 100 | > 100 µM | > 100 µM | > 100 |  | > 100 µM | > 100 | > 100 µM | > 100 | 
17 | COc1ccc2c(c1)-c1oc3ccccc3c(=O)c1CO2 | > 100 | > 100 |  |  |  | 73 | > 100 µM | > 100 | 88.4 µM | > 100 | 
18 | CCOC(=O)N(C)C1(c2ccccc2)CCN(CCCC(=O)c2ccc(F)cc2)CC1 | > 100 | > 100 | > 100 µM | 47.1 µM | 0.835 |  | 9.3 µM | > 100 |  | > 100 | 
19 | COc1ccc(C2=CN3CCC[C@H]3C=C2c2cc(O)c(OC)c(OC)c2)cc1OC | 0.0959 | 0.0278 | 0.0267 µM and 0.0127 µM | 0.101 µM and 0.0107 µM |  | 0.00947 | 0.0578 µM and 0.0206 µM | 0.153 | 0.0905 µM and 0.0233 µM | 0.0336 | 
20 | COC(=O)c1cccc(C(=O)OC)c1 | > 100 | > 100 | > 100 µM | > 100 µM | > 100 | > 100 | > 100 µM | > 100 |  |  | 
21 | O=c1[nH]c2ccccc2c2oc(-c3ccccc3)nc12 | > 100 | > 100 | > 100 µM |  | 80.8 | 45.8 | 58.1 µM | > 100 | > 100 µM | > 100 | 
